Test results: the Kinase Knowledgebase extract (Sharma et al. 2016)
pIC50: −log10 of the molar value.

Molecular target: ROCK2 (human) (UniProt O75116)
Test: Inhibition of ROCK2 Kinase Activity

Sequence of ROCK2 (human) (O75116 whole entry, looked up): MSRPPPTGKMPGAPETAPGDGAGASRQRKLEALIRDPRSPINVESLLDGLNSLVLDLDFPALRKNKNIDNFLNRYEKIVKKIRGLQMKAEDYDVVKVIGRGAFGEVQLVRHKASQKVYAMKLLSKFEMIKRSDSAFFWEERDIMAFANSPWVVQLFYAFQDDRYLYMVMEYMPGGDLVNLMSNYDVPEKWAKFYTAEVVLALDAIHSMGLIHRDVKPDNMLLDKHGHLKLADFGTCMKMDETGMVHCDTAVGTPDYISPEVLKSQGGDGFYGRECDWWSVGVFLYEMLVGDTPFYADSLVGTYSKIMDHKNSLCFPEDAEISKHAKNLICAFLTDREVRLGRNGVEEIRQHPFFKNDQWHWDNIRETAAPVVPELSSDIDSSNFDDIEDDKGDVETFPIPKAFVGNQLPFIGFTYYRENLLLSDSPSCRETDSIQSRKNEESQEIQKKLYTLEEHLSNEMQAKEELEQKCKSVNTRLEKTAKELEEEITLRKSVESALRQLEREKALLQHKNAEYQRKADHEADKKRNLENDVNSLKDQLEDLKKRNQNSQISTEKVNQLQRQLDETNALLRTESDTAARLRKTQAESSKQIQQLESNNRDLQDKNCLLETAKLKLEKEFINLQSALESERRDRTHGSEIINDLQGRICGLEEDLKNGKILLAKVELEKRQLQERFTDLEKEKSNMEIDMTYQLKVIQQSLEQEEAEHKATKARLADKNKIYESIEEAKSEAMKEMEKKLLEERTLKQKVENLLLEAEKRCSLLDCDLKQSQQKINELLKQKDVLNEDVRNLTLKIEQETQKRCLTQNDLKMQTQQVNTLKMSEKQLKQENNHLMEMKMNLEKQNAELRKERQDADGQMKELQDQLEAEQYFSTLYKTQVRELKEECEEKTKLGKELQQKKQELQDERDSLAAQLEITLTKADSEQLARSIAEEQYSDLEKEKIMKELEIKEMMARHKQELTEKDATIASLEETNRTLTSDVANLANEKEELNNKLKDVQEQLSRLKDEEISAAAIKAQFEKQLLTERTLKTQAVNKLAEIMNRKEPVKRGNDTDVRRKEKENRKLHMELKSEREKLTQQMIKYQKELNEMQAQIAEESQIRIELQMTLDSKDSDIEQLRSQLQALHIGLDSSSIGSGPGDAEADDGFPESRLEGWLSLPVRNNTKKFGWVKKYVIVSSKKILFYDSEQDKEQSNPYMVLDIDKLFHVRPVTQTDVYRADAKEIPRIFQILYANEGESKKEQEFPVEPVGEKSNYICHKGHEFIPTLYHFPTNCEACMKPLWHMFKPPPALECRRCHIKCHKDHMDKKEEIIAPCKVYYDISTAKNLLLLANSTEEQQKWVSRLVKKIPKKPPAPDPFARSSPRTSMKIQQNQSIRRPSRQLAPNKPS

| SMILES | pIC50 |
| --- | --- |
| NC(c1ccc(C(=O)Nc2ccncc2)cc1)C1CCCN1C(=O)C1(c2cccc(F)c2)CCCC1 (stereo unspecified) | 5.30 to 6.30 |
| CS(=O)(=O)NCCNC(=O)CC(N)c1ccc(C(=O)Nc2ccncc2)cc1 (stereo unspecified) | 6.30 to 7.30 |
| CC(C)(C)ON=Cc1cccc(C(=O)NCC(N)c2ccc(C(=O)Nc3ccncc3)cc2)c1 (stereo unspecified) | 5.30 to 6.30 |
| N[C@H](CC(=O)N[C@@H]1CCCc2ccccc21)c1ccc(C(=O)Nc2ccncc2)cc1 | > 7.30 |
| CC(C)(NC(=O)CC(N)c1ccc(C(=O)Nc2ccncc2)cc1)c1ccccc1 (stereo unspecified) | 6.30 to 7.30 |
| N[C@H](CC(=O)N[C@H]1CCCc2ccccc21)c1ccc(C(=O)Nc2ccncc2)cc1 | 6.30 to 7.30 |
| CC(C)CC(=O)NCC(N)c1ccc(C(=O)Nc2ccncc2)cc1 (stereo unspecified) | 5.30 to 6.30 |
| NC(c1ccc(C(=O)Nc2ccncc2)cc1)C1CCCN1C(=O)C1(c2ccc(F)cc2)CC1 (stereo unspecified) | 5.30 to 6.30 |
| NC(CC(=O)N[C@@H]1CCCc2ccccc21)c1ccc(C(=O)Nc2ccncc2)cc1 (stereo partly specified) | 6.30 to 7.30 |
| NC(c1ccc(C(=O)Nc2ccncc2)cc1)C1CCCN1C(=O)C1(c2ccsc2)CC1 (stereo unspecified) | 5.30 to 6.30 |
| CC(NC(=O)CC(N)c1ccc(C(=O)Nc2ccncc2)cc1)c1cccc2ccccc12 (stereo unspecified) | 6.30 to 7.30 |
| COc1cccc(CC(=O)N2CCCC2C(N)c2ccc(C(=O)Nc3ccncc3)cc2)c1 (stereo unspecified) | 5.30 to 6.30 |
| N[C@@H](CC(=O)NC1COc2ccccc21)c1ccc(C(=O)Nc2ccncc2)cc1 (stereo partly specified) | 6.30 to 7.30 |
| NC(CNC(=O)c1ccc([N+](=O)[O-])o1)c1ccc(C(=O)Nc2ccncc2)cc1 (stereo unspecified) | 5.30 to 6.30 |
| NC(CC(=O)NCCc1cccs1)c1ccc(C(=O)Nc2ccncc2)cc1 (stereo unspecified) | 6.30 to 7.30 |
| COCC(C)NC(=O)CC(N)c1ccc(C(=O)Nc2ccncc2)cc1 (stereo unspecified) | 6.30 to 7.30 |
| NC(CNC(=O)c1cnnc2ccccc12)c1ccc(C(=O)Nc2ccncc2)cc1 (stereo unspecified) | 5.30 to 6.30 |
| NC(c1ccc(C(=O)Nc2ccncc2)cc1)C1CCCN1C(=O)C1CCSc2ccccc21 (stereo unspecified) | 5.30 to 6.30 |
| CCCCC(=O)NCC(N)c1ccc(C(=O)Nc2ccncc2)cc1 (stereo unspecified) | 5.30 to 6.30 |
| N#CCCN(C(=O)CC(N)c1ccc(C(=O)Nc2ccncc2)cc1)C1CC1 (stereo unspecified) | 5.30 to 6.30 |
| NC(c1ccc(C(=O)Nc2ccncc2)cc1)C1CCCN1C(=O)C1(c2ccc(Cl)cc2F)CC1 (stereo unspecified) | 5.30 to 6.30 |
| Cc1ccsc1C=NOCC(=O)NCC(N)c1ccc(C(=O)Nc2ccncc2)cc1 (stereo unspecified) | 5.30 to 6.30 |
| NC(c1ccc(C(=O)Nc2ccncc2)cc1)C1CCCN1C(=O)C1(c2ccc(Cl)cc2)CCCC1 (stereo unspecified) | 5.30 to 6.30 |
| CC1=C(C(=O)NCC(N)c2ccc(C(=O)Nc3ccncc3)cc2)Cc2ccccc21 (stereo unspecified) | 5.30 to 6.30 |

| SMILES | pIC50 |
| --- | --- |
| NC(c1ccc(C(=O)Nc2ccncc2)cc1)C1CCCN1C(=O)Cc1cccs1 (stereo unspecified) | 6.30 to 7.30 |
| NC(c1ccc(C(=O)Nc2ccncc2)cc1)C1CCCN1C(=O)C1CCc2cc(F)ccc21 (stereo unspecified) | 5.30 to 6.30 |
| NC(CNC(=O)CC1Cc2ccccc2C1)c1ccc(C(=O)Nc2ccncc2)cc1 (stereo unspecified) | 6.30 to 7.30 |
| CCNC(=S)NCC(N)c1ccc(C(=O)Nc2ccncc2)cc1 (stereo unspecified) | 5.30 to 6.30 |
| COc1ccc2c(c1)CCCC2C(=O)NCC(N)c1ccc(C(=O)Nc2ccncc2)cc1 (stereo unspecified) | 6.30 to 7.30 |
| NC(CNC(=O)c1csc(-c2ccccc2)n1)c1ccc(C(=O)Nc2ccncc2)cc1 (stereo unspecified) | 5.30 to 6.30 |
| CC1CC1C(=O)NCC(N)c1ccc(C(=O)Nc2ccncc2)cc1 (stereo unspecified) | 5.30 to 6.30 |
| NC(CC(=O)NCCc1ccc(C(F)(F)F)cc1)c1ccc(C(=O)Nc2ccncc2)cc1 (stereo unspecified) | 6.30 to 7.30 |
| COc1ccc(CCNC(=O)CC(N)c2ccc(C(=O)Nc3ccncc3)cc2)cc1OC (stereo unspecified) | 5.30 to 6.30 |
| NC(CNC(=O)CC1C=CCC1)c1ccc(C(=O)Nc2ccncc2)cc1 (stereo unspecified) | 6.30 to 7.30 |
| COc1ccc(C(NC(=O)CC(N)c2ccc(C(=O)Nc3ccncc3)cc2)c2ccc(OC)cc2)cc1 (stereo unspecified) | 6.30 to 7.30 |
| NC(CNC(=O)CCc1ccccc1)c1ccc(C(=O)Nc2ccncc2)cc1 (stereo unspecified) | 6.30 to 7.30 |
| NC(CNC(=O)c1ccc(-c2ccccc2)cc1)c1ccc(C(=O)Nc2ccncc2)cc1 (stereo unspecified) | 5.30 to 6.30 |
| CN(C)CCNC(=O)CC(N)c1ccc(C(=O)Nc2ccncc2)cc1 (stereo unspecified) | 6.30 to 7.30 |
| NC(c1ccc(C(=O)Nc2ccncc2)cc1)C1CCCN1C(=O)C1(c2ccc(Cl)cc2)CC1 (stereo unspecified) | 5.30 to 6.30 |
| NC(c1ccc(C(=O)Nc2ccncc2)cc1)C1CCCN1C(=O)Cc1ccc2ccccc2c1 (stereo unspecified) | 5.30 to 6.30 |
| CCCCC(C)CCC(=O)NCC(N)c1ccc(C(=O)Nc2ccncc2)cc1 (stereo unspecified) | 6.30 to 7.30 |
| N[C@H](CNC(=O)C1(c2ccc(Cl)cc2)CC1)c1ccc(C(=O)Nc2ccncc2)cc1 | 6.30 to 7.30 |
| COc1ccc(C2(C(=O)N3CCCC3C(N)c3ccc(C(=O)Nc4ccncc4)cc3)CC2)cc1 (stereo unspecified) | 5.30 to 6.30 |
| CC(=NOC(C)(C)C)c1ccc(C(=O)NCC(N)c2ccc(C(=O)Nc3ccncc3)cc2)s1 (stereo unspecified) | 5.30 to 6.30 |
| NC(CNC(=O)c1ccnc2ccccc12)c1ccc(C(=O)Nc2ccncc2)cc1 (stereo unspecified) | 5.30 to 6.30 |
| NC(c1ccc(C(=O)Nc2ccncc2)cc1)C1CCCN1C(=O)C1(c2ccc(Cl)cc2)CCC1 (stereo unspecified) | 5.30 to 6.30 |
| CONC(=O)CC(N)c1ccc(C(=O)Nc2ccncc2)cc1 (stereo unspecified) | 6.30 to 7.30 |

The next lines start with the values.

| pIC50 | SMILES |
| --- | --- |
| 4.30 to 5.30 | CN(CC(N)c1ccc(C(=O)Nc2ccncc2)cc1)C(=O)C1CCSc2ccccc21 (stereo unspecified) |
| 5.30 to 6.30 | NC(CNC(=O)c1cc2cc(F)ccc2[nH]1)c1ccc(C(=O)Nc2ccncc2)cc1 (stereo unspecified) |
| 6.30 to 7.30 | NC(CNC(=O)c1ccc2[nH]ccc2c1)c1ccc(C(=O)Nc2ccncc2)cc1 (stereo unspecified) |
| 5.30 to 6.30 | CN(CC(N)c1ccc(C(=O)Nc2ccncc2)cc1)C(=O)C1(c2ccc(Cl)cc2F)CC1 (stereo unspecified) |
| 4.30 to 5.30 | CN(CC(N)c1ccc(C(=O)Nc2ccncc2)cc1)C(=O)C1CCSc2ccc(F)cc21 (stereo unspecified) |
| 6.30 to 7.30 | NC(CNC(=O)C1CCCCc2ccc(F)cc21)c1ccc(C(=O)Nc2ccncc2)cc1 (stereo unspecified) |
| 5.30 to 6.30 | NC(c1ccc(C(=O)Nc2ccncc2)cc1)C1CCCN1C(=O)C1(c2ccc(F)cc2Cl)CC1 (stereo unspecified) |
| 5.30 to 6.30 | Cc1ccc(C(=O)NCC(N)c2ccc(C(=O)Nc3ccncc3)cc2)cc1 (stereo unspecified) |
| 6.30 to 7.30 | NC(CNC(=O)Cc1ccc(F)c(F)c1)c1ccc(C(=O)Nc2ccncc2)cc1 (stereo unspecified) |
| 6.30 to 7.30 | COc1ccc(OC)c(CNC(=O)CC(N)c2ccc(C(=O)Nc3ccncc3)cc2)c1 (stereo unspecified) |
| 6.30 to 7.30 | CC(C)(C(=O)NCC(N)c1ccc(C(=O)Nc2ccncc2)cc1)c1ccc(F)cc1F (stereo unspecified) |
| 5.30 to 6.30 | CN(CC(N)c1ccc(C(=O)Nc2ccncc2)cc1)C(=O)Cc1ccc(F)cc1F (stereo unspecified) |
| 6.30 to 7.30 | NC(CC(=O)NCc1cccc([N+](=O)[O-])c1)c1ccc(C(=O)Nc2ccncc2)cc1 (stereo unspecified) |
| 5.30 to 6.30 | NC(CNC(=O)c1cccc(Cl)c1)c1ccc(C(=O)Nc2ccncc2)cc1 (stereo unspecified) |
| 5.30 to 6.30 | CN(CC(N)c1ccc(C(=O)Nc2ccncc2)cc1)C(=O)C1CCOc2ccc(F)cc21 (stereo unspecified) |
| 5.30 to 6.30 | CN(CC(N)c1ccc(C(=O)Nc2ccncc2)cc1)C(=O)C1(c2ccc(F)c(F)c2)CCCC1 (stereo unspecified) |
| 5.30 to 6.30 | CN(CC(N)c1ccc(C(=O)Nc2ccncc2)cc1)C(=O)Cc1ccc(F)cc1 (stereo unspecified) |
| 5.30 to 6.30 | CN(CC(N)c1ccc(C(=O)Nc2ccncc2)cc1)C(=O)C1(c2ccc(F)cc2)CC1 (stereo unspecified) |
| 5.30 to 6.30 | NC(c1ccc(C(=O)Nc2ccncc2)cc1)C1CCCN1C(=O)Cc1ccc(Cl)cc1Cl (stereo unspecified) |
| 6.30 to 7.30 | NC(CNC(=O)NCc1ccccc1)c1ccc(C(=O)Nc2ccncc2)cc1 (stereo unspecified) |
| 5.30 to 6.30 | NC(CC(=O)NCCc1cccc(F)c1)c1ccc(C(=O)Nc2ccncc2)cc1 (stereo unspecified) |
| 5.30 to 6.30 | NC(CNC(=O)c1cc2cc(Cl)ccc2o1)c1ccc(C(=O)Nc2ccncc2)cc1 (stereo unspecified) |
| 6.30 to 7.30 | NC(CC(=O)NCc1cccc(F)c1)c1ccc(C(=O)Nc2ccncc2)cc1 (stereo unspecified) |
| 5.30 to 6.30 | NC(CNC(=O)c1cccc(F)c1)c1ccc(C(=O)Nc2ccncc2)cc1 (stereo unspecified) |
| 6.30 to 7.30 | CC(C)(C(=O)NC[C@@H](N)c1ccc(C(=O)Nc2ccncc2)cc1)c1ccc(Cl)cc1 |
| 5.30 to 6.30 | CN(CC(N)c1ccc(C(=O)Nc2ccncc2)cc1)C(=O)Cc1ccc(Cl)cc1 (stereo unspecified) |
| 6.30 to 7.30 | NC(CC(=O)NCc1ccc(Cl)cc1Cl)c1ccc(C(=O)Nc2ccncc2)cc1 (stereo unspecified) |

| pIC50 | SMILES |
| --- | --- |
| 6.30 to 7.30 | NC(CNC(=O)COc1ccc(F)cc1)c1ccc(C(=O)Nc2ccncc2)cc1 (stereo unspecified) |
| 5.30 to 6.30 | CN(CC(N)c1ccc(C(=O)Nc2ccncc2)cc1)C(=O)C1(c2ccc(F)c(F)c2)CC1 (stereo unspecified) |
| 5.30 to 6.30 | Nc1c(C(=O)NCC(N)c2ccc(C(=O)Nc3ccncc3)cc2)cnn1-c1ccc(F)cc1 (stereo unspecified) |
| 5.30 to 6.30 | CC(=O)NCC(N)c1ccc(C(=O)Nc2ccncc2)cc1 (stereo unspecified) |
| 6.30 to 7.30 | CC(CNC(=O)CC(N)c1ccc(C(=O)Nc2ccncc2)cc1)c1ccc(Cl)cc1 (stereo unspecified) |
| 6.30 to 7.30 | NC(CNC(=O)Nc1ccccc1F)c1ccc(C(=O)Nc2ccncc2)cc1 (stereo unspecified) |
| 6.30 to 7.30 | NC(CNC(=O)C1(c2ccc(Cl)cc2F)CC1)c1ccc(C(=O)Nc2ccncc2)cc1 (stereo unspecified) |
| 6.30 to 7.30 | NC(CC(=O)NCc1ccccn1)c1ccc(C(=O)Nc2ccncc2)cc1 (stereo unspecified) |
| 6.30 to 7.30 | COc1cccc(NC(=O)NCC(N)c2ccc(C(=O)Nc3ccncc3)cc2)c1 (stereo unspecified) |
| 6.30 to 7.30 | NC(CC(=O)NCCc1ccc(Cl)cc1Cl)c1ccc(C(=O)Nc2ccncc2)cc1 (stereo unspecified) |
| 6.30 to 7.30 | NC(c1ccc(C(=O)Nc2ccncc2)cc1)C1CCCN1C(=O)Cc1ccc(F)cc1F (stereo unspecified) |
| 6.30 to 7.30 | COc1cccc(CCNC(=O)CC(N)c2ccc(C(=O)Nc3ccncc3)cc2)c1 (stereo unspecified) |
| 5.30 to 6.30 | COc1ccccc1CC(=O)N(C)CC(N)c1ccc(C(=O)Nc2ccncc2)cc1 (stereo unspecified) |
| 6.30 to 7.30 | NC(CC(=O)NCc1cccc(Cl)c1)c1ccc(C(=O)Nc2ccncc2)cc1 (stereo unspecified) |
| 5.30 to 6.30 | CN(CC(N)c1ccc(C(=O)Nc2ccncc2)cc1)C(=O)Cc1ccc(F)cc1Cl (stereo unspecified) |
| 6.30 to 7.30 | N[C@@H](CC(=O)NCc1ccc(F)cc1)c1ccc(C(=O)Nc2ccncc2)cc1 |
| 6.30 to 7.30 | COc1ccc(OC)c(CCNC(=O)CC(N)c2ccc(C(=O)Nc3ccncc3)cc2)c1 (stereo unspecified) |
| 5.30 to 6.30 | NC(CNC(=O)c1cccc(Br)c1)c1ccc(C(=O)Nc2ccncc2)cc1 (stereo unspecified) |
| 5.30 to 6.30 | CN(CC(N)c1ccc(C(=O)Nc2ccncc2)cc1)C(=O)C1(c2ccc(F)cc2)CCC1 (stereo unspecified) |
| 6.30 to 7.30 | NC(CC(=O)NCCc1c(Cl)cccc1Cl)c1ccc(C(=O)Nc2ccncc2)cc1 (stereo unspecified) |
| 6.30 to 7.30 | CC(C)(C(=O)NCC(N)c1ccc(C(=O)Nc2ccncc2)cc1)c1ccc(F)cc1Cl (stereo unspecified) |
| 5.30 to 6.30 | CN(CC(N)c1ccc(C(=O)Nc2ccncc2)cc1)C(=O)Cc1cncc(Br)c1 (stereo unspecified) |
| 6.30 to 7.30 | COc1cccc(CC(=O)N(C)CC(N)c2ccc(C(=O)Nc3ccncc3)cc2)c1 (stereo unspecified) |
| 5.30 to 6.30 | COc1ccc(C(=O)NCC(N)c2ccc(C(=O)Nc3ccncc3)cc2)cc1 (stereo unspecified) |
| 6.30 to 7.30 | CN(CC(N)c1ccc(C(=O)Nc2ccncc2)cc1)C(=O)C1Cc2ccccc21 (stereo unspecified) |
| 6.30 to 7.30 | Cc1ccccc1CNC(=O)NCC(N)c1ccc(C(=O)Nc2ccncc2)cc1 (stereo unspecified) |
| 6.30 to 7.30 | NC(CC(=O)NCc1ccccc1OC(F)(F)F)c1ccc(C(=O)Nc2ccncc2)cc1 (stereo unspecified) |
